# Measured values: PubChem BioAssay AID330 (DTP/NCI, 2004)
# Values joined by “and” are separate entries in the source; they are usually repeats but may differ in a detail not shown here. Identical values can stand only once. Toxic doses and inconclusive results are not listed.
# Tested on: P388 leukemia ip, CD2F1 mice, survival T/C
# Assay: NCI In Vivo Anticancer Drug Screen. Data for tumor model P388 Leukemia (intraperitoneal) in CD2F1 (CDF1) mice
# Conditions: endpoint: median survival time, higher = longer survival
# In short: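 Mice carrying the transplanted tumor received test compound or vehicle. Survival was recorded in each group, and the value is the treated-group measurement divided by that of the vehicle-treated control group.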
# [1] = dose: 50.0 mg/kg/injection, schedule: Q01DX005 (ip), vehicle: saline with Tween-80
# [2] = dose: 100.0 mg/kg/injection, schedule: Q01DX005 (ip), vehicle: saline with Tween-80
# [3] = dose: 50.0 mg/kg/injection, schedule: Q01DX005 (ip), vehicle: Klucel (hydroxypropylcellulose) (HPC)
# [4] = dose: 100.0 mg/kg/injection, schedule: Q01DX005 (ip), vehicle: Klucel (hydroxypropylcellulose) (HPC)
# [5] = dose: 240.0 mg/kg/injection, schedule: Q01DX005 (ip), vehicle: saline with Tween-80
# [6] = dose: 50.0 mg/kg/injection, schedule: Q01DX009 (ip), vehicle: saline with Tween-80
# [7] = dose: 100.0 mg/kg/injection, schedule: Q01DX009 (ip), vehicle: saline with Tween-80
# [8] = dose: 200.0 mg/kg/injection, schedule: Q01DX009 (ip), vehicle: saline with Tween-80
# [9] = dose: 25.0 mg/kg/injection, schedule: Q01DX009 (ip), vehicle: Klucel (hydroxypropylcellulose) (HPC)
# [10] = dose: 50.0 mg/kg/injection, schedule: Q01DX009 (ip), vehicle: Klucel (hydroxypropylcellulose) (HPC)
smiles,measurement,setting,value
O=C1CC2c3ccccc3CCN2C2=C1CCC2 (stereo not given),T/C,[1],96 % of control
same,T/C,[2],104 % of control
c1ccc2c(c1)[nH]c1c2c(N2CCOCC2)nn2cnnc12,T/C,"dose: 6.25 mg/kg/injection, schedule: Q01DX005 (ip), vehicle: Klucel (hydroxypropylcellulose) (HPC)",101 % of control
same,T/C,"dose: 12.5 mg/kg/injection, schedule: Q01DX005 (ip), vehicle: Klucel (hydroxypropylcellulose) (HPC)",100 % of control
same,T/C,"dose: 25.0 mg/kg/injection, schedule: Q01DX005 (ip), vehicle: Klucel (hydroxypropylcellulose) (HPC)",89 % of control
same,T/C,[3],99 % of control
same,T/C,"dose: 60.0 mg/kg/injection, schedule: Q01DX005 (ip), vehicle: saline with Tween-80",95 % of control
same,T/C,[4],100 % of control
same,T/C,"dose: 120.0 mg/kg/injection, schedule: Q01DX005 (ip), vehicle: saline with Tween-80",93 % of control
same,T/C,[5],98 % of control
NC1CC2c3ccccc3C1c1ccccc12 (stereo not given),T/C,"dose: 12.5 mg/kg/injection, schedule: Q01DX005 (ip), vehicle: saline with Tween-80",100 % of control
same,T/C,"dose: 25.0 mg/kg/injection, schedule: Q01DX005 (ip), vehicle: saline with Tween-80",100 % of control
same,T/C,[1],100 % of control
CCOC(=O)c1nc2c(N)nc(-c3ccccc3)nc2[nH]c1=O,T/C,[6],94 % of control
same,T/C,[7],92 % of control
same,T/C,[8],97 % of control
COC(=O)CC[C@@H]1C(C)=CC(=O)[C@@]2(F)[C@H]1CCC1=CC(=O)C=C[C@@]12C,T/C,[3],108 % of control
same,T/C,[4],100 % of control
same,T/C,"dose: 200.0 mg/kg/injection, schedule: Q01DX005 (ip), vehicle: Klucel (hydroxypropylcellulose) (HPC)",109 % of control
C=Cc1ccc(NC(=O)CC2SC(=O)NC2=O)cc1 (stereo not given),T/C,[1],103 % of control
same,T/C,[2],97 % of control
same,T/C,"dose: 200.0 mg/kg/injection, schedule: Q01DX005 (ip), vehicle: saline with Tween-80",103 % of control
C/C(=N\NC(=S)N(C)C)c1ccccn1,T/C,"dose: 6.25 mg/kg/injection, schedule: Q01DX009 (ip), vehicle: saline with Tween-80",100 % of control
c1cc2c(cc1CSCc1c(CSCc3ccc4c(c3)OCO4)c(CSCc3ccc4c(c3)OCO4)c(CSCc3ccc4c(c3)OCO4)c(CSCc3ccc4c(c3)OCO4)c1CSCc1ccc3c(c1)OCO3)OCO2,T/C,[6],100 % of control
same,T/C,[7],99 % of control
same,T/C,[8],97 % of control
CCCCN(CCC#N)c1ccc(/C=C/c2ccnc3ccccc23)cc1,T/C,[9],96 % of control
same,T/C,[10],96 % of control
CSC1(CC(=O)N(C)C)C(=O)N(C)c2ccccc21 (stereo not given),T/C,"dose: 25.0 mg/kg/injection, schedule: Q01DX009 (ip), vehicle: saline with Tween-80",100 % of control
same,T/C,[6],94 % of control
same,T/C,[7],115 % of control
CCOS(=O)c1ccc(C)cc1 (stereo not given),T/C,"dose: 12.5 mg/kg/injection, schedule: Q01DX009 (ip), vehicle: Klucel (hydroxypropylcellulose) (HPC)",98 % of control
same,T/C,[9],98 % of control
same,T/C,[10],105 % of control and 110 % of control
COC(=O)c1ccccc1NC(=O)CN1C(=O)c2ccccc2C1=O,T/C,"dose: 100.0 mg/kg/injection, schedule: Q04DX003 (ip), vehicle: saline with Tween-80",96 % of control
same,T/C,"dose: 200.0 mg/kg/injection, schedule: Q04DX003 (ip), vehicle: saline with Tween-80",102 % of control
same,T/C,"dose: 400.0 mg/kg/injection, schedule: Q04DX003 (ip), vehicle: saline with Tween-80",88 % of control
CC1CN(CCC#N)CC(C)O1 (stereo not given),T/C,"dose: 25.0 mg/kg/injection, schedule: Q01DX009 (ip), vehicle: saline",101 % of control
same,T/C,"dose: 50.0 mg/kg/injection, schedule: Q01DX009 (ip), vehicle: saline",101 % of control
same,T/C,"dose: 100.0 mg/kg/injection, schedule: Q01DX009 (ip), vehicle: saline",101 % of control
same,T/C,"dose: 200.0 mg/kg/injection, schedule: Q01DX009 (ip), vehicle: saline",104 % of control
COc1cccc(/C=C(\NC(=O)c2ccccc2)c2nc3ccccc3s2)c1,T/C,[1],110 % of control
same,T/C,[2],116 % of control
same,T/C,[5],116 % of control
CCCCN1C(=O)N/C(=C/C(=O)OCC)C1=O,T/C,[9],93 % of control
same,T/C,[10],103 % of control
same,T/C,"dose: 100.0 mg/kg/injection, schedule: Q01DX009 (ip), vehicle: Klucel (hydroxypropylcellulose) (HPC)",102 % of control
C=C1CCCC2CCC[N+](C)(CC(=O)OCC)C12 (stereo not given),T/C,"dose: 50.0 mg/kg/injection, schedule: Q01DX005 (ip), vehicle: saline",93 % of control
C=C1C(C)C2C(Cc3ccccc3)NC(=O)C23OC(=O)/C=C\CC(=O)CCC(C)C/C=C/C3C1O (stereo not given),T/C,"dose: 5.0 mg/kg/injection, schedule: Q01DX009 (ip), vehicle: Klucel (hydroxypropylcellulose) (HPC)",110 % of control
same,T/C,"dose: 10.0 mg/kg/injection, schedule: Q01DX009 (ip), vehicle: Klucel (hydroxypropylcellulose) (HPC)",118 % of control
